{"source": "PubChem BioAssay (NCI)", "experiment_in_all_cases": "DTP human tumour cell line panel, 48 h", "key": {"EKVX NSCLC": {"tested_on": "EKVX NSCLC"}, "SF-268 CNS": {"tested_on": "SF-268 CNS"}, "UACC-257 melanoma": {"tested_on": "UACC-257 melanoma"}, "MDA-MB-231 breast": {"tested_on": "MDA-MB-231 breast"}, "UO-31 renal": {"tested_on": "UO-31 renal"}, "RPMI-8226 leukemia": {"tested_on": "RPMI-8226 leukemia"}, "ACHN renal": {"tested_on": "ACHN renal"}, "OVCAR-8 ovarian": {"tested_on": "OVCAR-8 ovarian"}, "NCI-H23 lung": {"tested_on": "NCI-H23 lung"}, "HCC-2998 colon": {"tested_on": "HCC-2998 colon"}, "TK-10 renal": {"tested_on": "TK-10 renal"}, "MOLT-4 leukemia": {"tested_on": "MOLT-4 leukemia"}, "NCI-H226 lung": {"tested_on": "NCI-H226 lung"}, "IGROV1 ovarian": {"tested_on": "IGROV1 ovarian"}, "MDA-MB-435": {"tested_on": "MDA-MB-435"}, "SK-OV-3 ovarian": {"tested_on": "SK-OV-3 ovarian"}, "UACC-62 melanoma": {"tested_on": "UACC-62 melanoma"}, "HT29 colon": {"tested_on": "HT29 colon"}, "DU-145 prostate": {"tested_on": "DU-145 prostate"}, "U251 CNS": {"tested_on": "U251 CNS"}, "MCF7 breast": {"tested_on": "MCF7 breast"}, "CAKI-1 renal": {"tested_on": "CAKI-1 renal"}, "OVCAR-3 ovarian": {"tested_on": "OVCAR-3 ovarian"}, "SK-MEL-5 melanoma": {"tested_on": "SK-MEL-5 melanoma"}, "MALME-3M melanoma": {"tested_on": "MALME-3M melanoma"}, "HCT-15 colon": {"tested_on": "HCT-15 colon"}, "PC-3 prostate": {"tested_on": "PC-3 prostate"}, "COLO 205 colon": {"tested_on": "COLO 205 colon"}, "NCI/ADR-RES ovarian": {"tested_on": "NCI/ADR-RES ovarian"}, "SK-MEL-2 melanoma": {"tested_on": "SK-MEL-2 melanoma"}, "K-562 leukemia": {"tested_on": "K-562 leukemia"}, "OVCAR-5 ovarian": {"tested_on": "OVCAR-5 ovarian"}, "NCI-H522 lung": {"tested_on": "NCI-H522 lung"}, "CCRF-CEM leukemia": {"tested_on": "CCRF-CEM leukemia"}, "HCT-116 colon": {"tested_on": "HCT-116 colon"}, "LOX IMVI melanoma": {"tested_on": "LOX IMVI melanoma"}, "SW-620 colon": {"tested_on": "SW-620 colon"}, "SNB-19 CNS": {"tested_on": "SNB-19 CNS"}, "A549 NSCLC": {"tested_on": "A549 NSCLC"}, "T-47D breast": {"tested_on": "T-47D breast"}, "786-0 renal": {"tested_on": "786-0 renal"}, "SK-MEL-28 melanoma": {"tested_on": "SK-MEL-28 melanoma"}, "KM12 colon": {"tested_on": "KM12 colon"}, "M14 melanoma": {"tested_on": "M14 melanoma"}, "BT-549 breast": {"tested_on": "BT-549 breast"}, "HOP-62 NSCLC": {"tested_on": "HOP-62 NSCLC"}, "MDA-N": {"tested_on": "MDA-N"}, "OVCAR-4 ovarian": {"tested_on": "OVCAR-4 ovarian"}, "RXF 393 renal": {"tested_on": "RXF 393 renal"}, "A498 renal": {"tested_on": "A498 renal"}, "SF-539 CNS": {"tested_on": "SF-539 CNS"}, "HL-60(TB) leukemia": {"tested_on": "HL-60(TB) leukemia"}, "SN12C renal": {"tested_on": "SN12C renal"}, "SNB-75 CNS": {"tested_on": "SNB-75 CNS"}, "SR leukemia": {"tested_on": "SR leukemia"}, "HS 578T breast": {"tested_on": "HS 578T breast"}, "NCI-H460 lung": {"tested_on": "NCI-H460 lung"}, "SF-295 CNS": {"tested_on": "SF-295 CNS"}}, "note": "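How tested: cells in 96-well plates exposed to compound for 48 hours at five concentrations. TGI is the concentration that stops growth completely.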"}
{"compound": "COC(=O)C1(OC(=O)Sc2ccccc2)CCN(C)CC1", "values": [{"measurement": "TGI", "setting": "EKVX NSCLC", "result": "> 84.6", "unit": "µM"}, {"measurement": "TGI", "setting": "SF-268 CNS", "result": 62, "unit": "µM"}, {"measurement": "TGI", "setting": "UACC-257 melanoma", "result": 56.6, "unit": "µM"}, {"measurement": "TGI", "setting": "MDA-MB-231 breast", "result": 59, "unit": "µM"}, {"measurement": "TGI", "setting": "UO-31 renal", "result": 20.8, "unit": "µM"}, {"measurement": "TGI", "setting": "RPMI-8226 leukemia", "result": 35, "unit": "µM"}, {"measurement": "TGI", "setting": "ACHN renal", "result": "> 54.1", "unit": "µM"}, {"measurement": "TGI", "setting": "OVCAR-8 ovarian", "result": 52.7, "unit": "µM"}, {"measurement": "TGI", "setting": "NCI-H23 lung", "result": 50.2, "unit": "µM"}, {"measurement": "TGI", "setting": "HCC-2998 colon", "result": "> 73", "unit": "µM"}, {"measurement": "TGI", "setting": "TK-10 renal", "result": "> 75.6", "unit": "µM"}, {"measurement": "TGI", "setting": "MOLT-4 leukemia", "result": "> 39.8", "unit": "µM"}, {"measurement": "TGI", "setting": "NCI-H226 lung", "result": 35.7, "unit": "µM"}, {"measurement": "TGI", "setting": "IGROV1 ovarian", "result": 18.7, "unit": "µM"}, {"measurement": "TGI", "setting": "MDA-MB-435", "result": 36.3, "unit": "µM"}, {"measurement": "TGI", "setting": "SK-OV-3 ovarian", "result": "> 69.1", "unit": "µM"}, {"measurement": "TGI", "setting": "UACC-62 melanoma", "result": "> 64.7", "unit": "µM"}, {"measurement": "TGI", "setting": "HT29 colon", "result": 58, "unit": "µM"}, {"measurement": "TGI", "setting": "DU-145 prostate", "result": "> 100", "unit": "µM"}, {"measurement": "TGI", "setting": "U251 CNS", "result": 40.6, "unit": "µM"}, {"measurement": "TGI", "setting": "MCF7 breast", "result": "> 100", "unit": "µM"}, {"measurement": "TGI", "setting": "CAKI-1 renal", "result": 27.8, "unit": "µM"}, {"measurement": "TGI", "setting": "OVCAR-3 ovarian", "result": "> 45.3", "unit": "µM"}, {"measurement": "TGI", "setting": "SK-MEL-5 melanoma", "result": "> 70.4", "unit": "µM"}, {"measurement": "TGI", "setting": "MALME-3M melanoma", "result": "> 100", "unit": "µM"}, {"measurement": "TGI", "setting": "HCT-15 colon", "result": "> 63.1", "unit": "µM"}, {"measurement": "TGI", "setting": "PC-3 prostate", "result": "> 83.5", "unit": "µM"}, {"measurement": "TGI", "setting": "COLO 205 colon", "result": 29.8, "unit": "µM"}, {"measurement": "TGI", "setting": "NCI/ADR-RES ovarian", "result": "> 48.4", "unit": "µM"}, {"measurement": "TGI", "setting": "SK-MEL-2 melanoma", "result": "> 100", "unit": "µM"}, {"measurement": "TGI", "setting": "K-562 leukemia", "result": 61.1, "unit": "µM"}, {"measurement": "TGI", "setting": "OVCAR-5 ovarian", "result": "> 69.6", "unit": "µM"}, {"measurement": "TGI", "setting": "NCI-H522 lung", "result": 35.1, "unit": "µM"}, {"measurement": "TGI", "setting": "CCRF-CEM leukemia", "result": 19.7, "unit": "µM"}, {"measurement": "TGI", "setting": "HCT-116 colon", "result": 53.6, "unit": "µM"}, {"measurement": "TGI", "setting": "LOX IMVI melanoma", "result": 28.4, "unit": "µM"}, {"measurement": "TGI", "setting": "SW-620 colon", "result": 54.9, "unit": "µM"}, {"measurement": "TGI", "setting": "SNB-19 CNS", "result": "> 100", "unit": "µM"}, {"measurement": "TGI", "setting": "A549 NSCLC", "result": "> 100", "unit": "µM"}, {"measurement": "TGI", "setting": "T-47D breast", "result": "> 100", "unit": "µM"}, {"measurement": "TGI", "setting": "786-0 renal", "result": 50.3, "unit": "µM"}, {"measurement": "TGI", "setting": "SK-MEL-28 melanoma", "result": "> 100", "unit": "µM"}, {"measurement": "TGI", "setting": "KM12 colon", "result": "> 47.4", "unit": "µM"}, {"measurement": "TGI", "setting": "M14 melanoma", "result": "> 58.6", "unit": "µM"}, {"measurement": "TGI", "setting": "BT-549 breast", "result": 7.04, "unit": "µM"}, {"measurement": "TGI", "setting": "HOP-62 NSCLC", "result": "> 66.6", "unit": "µM"}, {"measurement": "TGI", "setting": "MDA-N", "result": 49.4, "unit": "µM"}, {"measurement": "TGI", "setting": "OVCAR-4 ovarian", "result": "> 100", "unit": "µM"}, {"measurement": "TGI", "setting": "RXF 393 renal", "result": 34.9, "unit": "µM"}, {"measurement": "TGI", "setting": "A498 renal", "result": 45.8, "unit": "µM"}, {"measurement": "TGI", "setting": "SF-539 CNS", "result": 26.5, "unit": "µM"}, {"measurement": "TGI", "setting": "HL-60(TB) leukemia", "result": 24, "unit": "µM"}, {"measurement": "TGI", "setting": "SN12C renal", "result": 21.3, "unit": "µM"}, {"measurement": "TGI", "setting": "SNB-75 CNS", "result": 40.1, "unit": "µM"}, {"measurement": "TGI", "setting": "SR leukemia", "result": 35.7, "unit": "µM"}, {"measurement": "TGI", "setting": "HS 578T breast", "result": 70.9, "unit": "µM"}, {"measurement": "TGI", "setting": "NCI-H460 lung", "result": 58.1, "unit": "µM"}, {"measurement": "TGI", "setting": "SF-295 CNS", "result": "> 59.5", "unit": "µM"}]}
